pIC50: −log10 of the molar value.
Test system: Mus musculus
Assay: Analgesic activity in Swiss albino mouse assessed as latancy of withdrawing tail at 50 mg/kg, po measured after 2 hrs by tail flick test relative to control
Format: functional
Conditions: not given

Structure (SMILES) | MPE [%]
COc1ccc2cc(C(C)c3nc4s/c(=C\C(C)=C\c5ccccc5)c(=O)n4n3)ccc2c1 (stereo not given) | 45.3
COc1ccc2cc(C(C)c3nc4s/c(=C\c5ccc(C(C)C)cc5)c(=O)n4n3)ccc2c1 (stereo not given) | 36.9
COc1ccc2cc(C(C)c3nc4s/c(=C\c5sccc5C)c(=O)n4n3)ccc2c1 (stereo not given) | 15.2
COc1ccc2cc(C(C)c3nc4s/c(=C\c5ccccc5OC(C)=O)c(=O)n4n3)ccc2c1 (stereo not given) | 27.8

Test system: Mus musculus
Assay: Analgesic activity in Swiss albino mouse assessed as latancy of withdrawing tail at 100 mg/kg, po measured after 2 hrs by tail flick test relative to control
Format: functional
Conditions: not given

Structure (SMILES) | MPE [%]
COc1ccc2cc(C(C)c3nc4s/c(=C\C(C)=C\c5ccccc5)c(=O)n4n3)ccc2c1 (stereo not given) | 41.1
COc1ccc2cc(C(C)c3nc4s/c(=C\c5ccc(C(C)C)cc5)c(=O)n4n3)ccc2c1 (stereo not given) | 17.9
COc1ccc2cc(C(C)c3nc4s/c(=C\c5sccc5C)c(=O)n4n3)ccc2c1 (stereo not given) | 10.2
COc1ccc2cc(C(C)c3nc4s/c(=C\c5ccccc5OC(C)=O)c(=O)n4n3)ccc2c1 (stereo not given) | 13.3

Test system: Mus musculus
Assay: Analgesic activity in Swiss albino mouse assessed as time of licking paws at 50 mg/kg, po measured after 2 hrs by tail flick test relative to control
Format: functional
Conditions: not given

Structure (SMILES) | MPE [%]
COc1ccc2cc(C(C)c3nc4s/c(=C\C(C)=C\c5ccccc5)c(=O)n4n3)ccc2c1 (stereo not given) | 28.7
COc1ccc2cc(C(C)c3nc4s/c(=C\c5ccc(C(C)C)cc5)c(=O)n4n3)ccc2c1 (stereo not given) | 27.6
COc1ccc2cc(C(C)c3nc4s/c(=C\c5sccc5C)c(=O)n4n3)ccc2c1 (stereo not given) | 13.5
COc1ccc2cc(C(C)c3nc4s/c(=C\c5ccccc5OC(C)=O)c(=O)n4n3)ccc2c1 (stereo not given) | 19.8

Test system: Mus musculus
Assay: Analgesic activity in Swiss albino mouse assessed as time of licking paws at 100 mg/kg, po measured after 2 hrs by tail flick test relative to control
Format: functional
Conditions: not given

Structure (SMILES) | MPE [%]
COc1ccc2cc(C(C)c3nc4s/c(=C\C(C)=C\c5ccccc5)c(=O)n4n3)ccc2c1 (stereo not given) | 25.9
COc1ccc2cc(C(C)c3nc4s/c(=C\c5ccc(C(C)C)cc5)c(=O)n4n3)ccc2c1 (stereo not given) | 22
COc1ccc2cc(C(C)c3nc4s/c(=C\c5sccc5C)c(=O)n4n3)ccc2c1 (stereo not given) | 18.3
COc1ccc2cc(C(C)c3nc4s/c(=C\c5ccccc5OC(C)=O)c(=O)n4n3)ccc2c1 (stereo not given) | 27

Test system: Mus musculus
Assay: Antiinflammatory activity in Swiss albino mouse assessed as inhibition of carrageenan-induced paw edema at 50 mg/kg, po administered 1 hr prior to carrageenan challenge measured after 2 hrs relative to control
Format: functional
Set-up: scale not given: the % may be the effect or the level left
Conditions: not given

Structure (SMILES) | Activity [%]
COc1ccc2cc(C(C)c3nc4s/c(=C\C(C)=C\c5ccccc5)c(=O)n4n3)ccc2c1 (stereo not given) | 35.4
COc1ccc2cc(C(C)c3nc4s/c(=C\c5ccc(C(C)C)cc5)c(=O)n4n3)ccc2c1 (stereo not given) | 29.3
COc1ccc2cc(C(C)c3nc4s/c(=C\c5sccc5C)c(=O)n4n3)ccc2c1 (stereo not given) | 22.5
COc1ccc2cc(C(C)c3nc4s/c(=C\c5ccccc5OC(C)=O)c(=O)n4n3)ccc2c1 (stereo not given) | 26.6

Test system: Mus musculus
Assay: Antiinflammatory activity in Swiss albino mouse assessed as inhibition of carrageenan-induced paw edema at 100 mg/kg, po administered 1 hr prior to carrageenan challenge measured after 2 hrs relative to control
Format: functional
Set-up: scale not given: the % may be the effect or the level left
Conditions: not given

Structure (SMILES) | Activity [%]
COc1ccc2cc(C(C)c3nc4s/c(=C\C(C)=C\c5ccccc5)c(=O)n4n3)ccc2c1 (stereo not given) | 30.7
COc1ccc2cc(C(C)c3nc4s/c(=C\c5ccc(C(C)C)cc5)c(=O)n4n3)ccc2c1 (stereo not given) | 43.3
COc1ccc2cc(C(C)c3nc4s/c(=C\c5sccc5C)c(=O)n4n3)ccc2c1 (stereo not given) | 19.7
COc1ccc2cc(C(C)c3nc4s/c(=C\c5ccccc5OC(C)=O)c(=O)n4n3)ccc2c1 (stereo not given) | 44.9

Target: T1, Prostaglandin G/H synthase 1 (Ovis aries, UniProt P05979)
T1 sequence (P05979 whole entry): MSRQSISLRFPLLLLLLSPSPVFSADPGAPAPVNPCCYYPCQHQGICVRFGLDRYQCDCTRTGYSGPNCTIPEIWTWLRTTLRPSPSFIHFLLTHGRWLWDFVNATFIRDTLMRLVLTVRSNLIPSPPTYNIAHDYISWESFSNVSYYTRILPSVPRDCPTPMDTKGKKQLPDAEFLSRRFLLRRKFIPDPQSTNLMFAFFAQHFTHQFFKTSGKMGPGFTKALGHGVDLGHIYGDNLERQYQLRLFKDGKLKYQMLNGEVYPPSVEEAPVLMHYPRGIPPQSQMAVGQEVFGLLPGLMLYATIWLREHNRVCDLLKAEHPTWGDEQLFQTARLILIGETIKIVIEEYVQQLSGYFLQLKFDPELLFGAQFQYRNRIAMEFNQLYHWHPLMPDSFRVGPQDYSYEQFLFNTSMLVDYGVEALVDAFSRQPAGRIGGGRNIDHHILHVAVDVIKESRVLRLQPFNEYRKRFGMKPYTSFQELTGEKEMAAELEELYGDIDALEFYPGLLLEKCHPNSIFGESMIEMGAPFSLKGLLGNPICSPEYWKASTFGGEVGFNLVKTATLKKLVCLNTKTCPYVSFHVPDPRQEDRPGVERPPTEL
Assay: Inhibition of ovine recombinant COX-1 using […] as substrate incubated for 10 mins prior to arachidonic acid addition measured after 2 mins by EIA
Conditions: not given

Structure (SMILES) | pIC50
COc1ccc2cc(C(C)c3nc4s/c(=C\C(C)=C\c5ccccc5)c(=O)n4n3)ccc2c1 (stereo not given) | 4.19
COc1ccc2cc(C(C)c3nc4s/c(=C\c5ccc(C(C)C)cc5)c(=O)n4n3)ccc2c1 (stereo not given) | 4.10

Target: T2, Prostaglandin G/H synthase 2 (Homo sapiens, UniProt P35354)
T2 sequence (P35354 whole entry): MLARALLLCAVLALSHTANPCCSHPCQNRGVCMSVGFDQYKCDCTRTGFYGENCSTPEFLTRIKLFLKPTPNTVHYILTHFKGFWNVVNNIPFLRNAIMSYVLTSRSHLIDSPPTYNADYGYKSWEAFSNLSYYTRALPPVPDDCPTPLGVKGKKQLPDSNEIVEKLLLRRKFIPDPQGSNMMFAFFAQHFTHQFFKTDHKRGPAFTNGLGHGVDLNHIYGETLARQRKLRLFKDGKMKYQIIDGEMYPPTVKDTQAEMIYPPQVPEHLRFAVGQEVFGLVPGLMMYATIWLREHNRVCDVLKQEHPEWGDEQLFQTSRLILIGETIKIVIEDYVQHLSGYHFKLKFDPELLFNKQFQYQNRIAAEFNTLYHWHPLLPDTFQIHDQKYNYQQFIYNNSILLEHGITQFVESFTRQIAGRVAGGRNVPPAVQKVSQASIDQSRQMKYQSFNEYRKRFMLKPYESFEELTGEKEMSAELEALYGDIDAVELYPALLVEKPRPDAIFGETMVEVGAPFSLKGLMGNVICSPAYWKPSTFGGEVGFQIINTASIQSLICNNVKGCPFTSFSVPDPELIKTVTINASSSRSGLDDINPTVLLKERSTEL
Assay: Inhibition of human recombinant COX-2 using […] as substrate incubated for 10 mins prior to arachidonic acid addition measured after 2 mins by EIA
Conditions: not given

Structure (SMILES) | pIC50
COc1ccc2cc(C(C)c3nc4s/c(=C\C(C)=C\c5ccccc5)c(=O)n4n3)ccc2c1 (stereo not given) | 4.61
COc1ccc2cc(C(C)c3nc4s/c(=C\c5ccc(C(C)C)cc5)c(=O)n4n3)ccc2c1 (stereo not given) | < 4.00

Test system: not listed separately
Assay: Selectivity ratio of IC50 for ovine recombinant COX-1 to IC50 for human recombinant COX-2
Conditions: not given

Structure (SMILES) | Ratio IC50
COc1ccc2cc(C(C)c3nc4s/c(=C\C(C)=C\c5ccccc5)c(=O)n4n3)ccc2c1 (stereo not given) | 2.63
COc1ccc2cc(C(C)c3nc4s/c(=C\c5ccc(C(C)C)cc5)c(=O)n4n3)ccc2c1 (stereo not given) | < 0.796

Test system: Mus musculus
Assay: Gastrointestinal toxicity in Swiss albino mouse assessed as ulcer index at 50 mg/kg, po measured after 2 hrs
Format: organism-based
Set-up: dose 50 mg/kg, route oral
Conditions: in vivo

Structure (SMILES) | UI
COc1ccc2cc(C(C)c3nc4s/c(=C\C(C)=C\c5ccccc5)c(=O)n4n3)ccc2c1 (stereo not given) | 2
COc1ccc2cc(C(C)c3nc4s/c(=C\c5ccc(C(C)C)cc5)c(=O)n4n3)ccc2c1 (stereo not given) | 2.6
COc1ccc2cc(C(C)c3nc4s/c(=C\c5sccc5C)c(=O)n4n3)ccc2c1 (stereo not given) | 2.6
COc1ccc2cc(C(C)c3nc4s/c(=C\c5ccccc5OC(C)=O)c(=O)n4n3)ccc2c1 (stereo not given) | 2.9

Test system: Mus musculus
Assay: Gastrointestinal toxicity in Swiss albino mouse assessed as ulcer index at 100 mg/kg, po measured after 2 hrs
Format: organism-based
Set-up: dose 100 mg/kg, route oral
Conditions: in vivo

Structure (SMILES) | UI
COc1ccc2cc(C(C)c3nc4s/c(=C\C(C)=C\c5ccccc5)c(=O)n4n3)ccc2c1 (stereo not given) | 2.3
COc1ccc2cc(C(C)c3nc4s/c(=C\c5ccc(C(C)C)cc5)c(=O)n4n3)ccc2c1 (stereo not given) | 2.4
COc1ccc2cc(C(C)c3nc4s/c(=C\c5sccc5C)c(=O)n4n3)ccc2c1 (stereo not given) | 2.7
COc1ccc2cc(C(C)c3nc4s/c(=C\c5ccccc5OC(C)=O)c(=O)n4n3)ccc2c1 (stereo not given) | 3

Test system: Mus musculus
Assay: Acute toxicity in Swiss albino mouse assessed as mortality at 50 to 100 mg/kg, po measured after 6 hrs to 14 days
Format: organism-based
Set-up: dose 50-100 mg/kg, route oral
Conditions: in vivo

Structure (SMILES) | Activity
COc1ccc2cc(C(C)c3nc4s/c(=C\C(C)=C\c5ccccc5)c(=O)n4n3)ccc2c1 (stereo not given) | Non-toxic
COc1ccc2cc(C(C)c3nc4s/c(=C\c5ccc(C(C)C)cc5)c(=O)n4n3)ccc2c1 (stereo not given) | Non-toxic
COc1ccc2cc(C(C)c3nc4s/c(=C\c5sccc5C)c(=O)n4n3)ccc2c1 (stereo not given) | Non-toxic
COc1ccc2cc(C(C)c3nc4s/c(=C\c5ccccc5OC(C)=O)c(=O)n4n3)ccc2c1 (stereo not given) | Non-toxic

Test system: Mus musculus
Assay: Acute toxicity in Swiss albino mouse assessed as weight loss at 50 to 100 mg/kg, po measured up to 14 days
Format: organism-based
Set-up: dose 50-100 mg/kg, route oral
Conditions: in vivo, 336 h

Structure (SMILES) | Activity
COc1ccc2cc(C(C)c3nc4s/c(=C\C(C)=C\c5ccccc5)c(=O)n4n3)ccc2c1 (stereo not given) | Non-toxic
COc1ccc2cc(C(C)c3nc4s/c(=C\c5ccc(C(C)C)cc5)c(=O)n4n3)ccc2c1 (stereo not given) | Non-toxic
COc1ccc2cc(C(C)c3nc4s/c(=C\c5sccc5C)c(=O)n4n3)ccc2c1 (stereo not given) | Non-toxic
COc1ccc2cc(C(C)c3nc4s/c(=C\c5ccccc5OC(C)=O)c(=O)n4n3)ccc2c1 (stereo not given) | Non-toxic

Test system: Mus musculus
Assay: Acute toxicity in Swiss albino mouse assessed as behavioral changes at 50 to 100 mg/kg, po measured up to 14 days
Format: organism-based
Set-up: dose 50-100 mg/kg, route oral
Conditions: in vivo, 336 h

Structure (SMILES) | Activity
COc1ccc2cc(C(C)c3nc4s/c(=C\C(C)=C\c5ccccc5)c(=O)n4n3)ccc2c1 (stereo not given) | Non-toxic
COc1ccc2cc(C(C)c3nc4s/c(=C\c5ccc(C(C)C)cc5)c(=O)n4n3)ccc2c1 (stereo not given) | Non-toxic
COc1ccc2cc(C(C)c3nc4s/c(=C\c5sccc5C)c(=O)n4n3)ccc2c1 (stereo not given) | Non-toxic
COc1ccc2cc(C(C)c3nc4s/c(=C\c5ccccc5OC(C)=O)c(=O)n4n3)ccc2c1 (stereo not given) | Non-toxic
